pIC50: −log10 of the molar value.
Tested on: 966289-007-R4-J1-PDC complex spheroid viability
Assay: Anticancer human tumor 966289-007-R4-J1-PDC patient-derived pancreatic adenocarcinoma cell line growth inhibition [RAS]
Conditions: for pIC50: curve of first compound; for viability, T/C: stronger effect = lower value
Outline: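 Agents were tested in combination matrices in half-log decrements from a top concentration at or near clinical Cmax (10 microM if undetermined). Targets were multi-cell spheroids of tumour lines plus HUVEC and MSC stromal cells.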
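Also: spheroids exposed to agents for one week before readout.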
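For viability, T/C in this document: percent viability relative to DMSO vehicle control wells as 100%.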

pIC50 (second compound 0.000949 µM): 5.23
pIC50 (second compound 0.003 µM): 5.34
pIC50 (second compound 0.00949 µM): 5.30
pIC50 (second compound 0.03 µM): 5.32
pIC50 (second compound 0.0949 µM): 5.52
pIC50 (second compound 0.3 µM): 5.39
Compound: CC(C)NCC(C(=O)N1CCN(c2ncnc3c2C(C)CC3O)CC1)c1ccc(Cl)cc1 (configuration not stated) + CCn1c(-c2cc(N3CCN(C)CC3)cnc2C(C)OC)c2c3cc(ccc31)-c1csc(n1)CC(NC(=O)C1CC1C)C(=O)N1CCCC(N1)C(=O)OCC(C)(C)C2
viability, T/C (second compound 0.000949 µM, first compound 0.0316 µM): 115%
viability, T/C (second compound 0.000949 µM, first compound 0.1 µM): 76.5%
viability, T/C (second compound 0.000949 µM, first compound 0.316 µM): 119%
viability, T/C (second compound 0.000949 µM, first compound 1 µM): 83.1%
viability, T/C (second compound 0.000949 µM, first compound 3.16 µM): 68.4%
viability, T/C (second compound 0.000949 µM, first compound 10 µM): 35.2%
viability, T/C (second compound 0.003 µM, first compound 0.0316 µM): 106%
viability, T/C (second compound 0.003 µM, first compound 0.1 µM): 92.5%
viability, T/C (second compound 0.003 µM, first compound 0.316 µM): 91.8%
viability, T/C (second compound 0.003 µM, first compound 1 µM): 95.3%
viability, T/C (second compound 0.003 µM, first compound 3.16 µM): 58.1%
viability, T/C (second compound 0.003 µM, first compound 10 µM): 32.2%
viability, T/C (second compound 0.00949 µM, first compound 0.0316 µM): 85.5%
viability, T/C (second compound 0.00949 µM, first compound 0.1 µM): 98.6%
viability, T/C (second compound 0.00949 µM, first compound 0.316 µM): 103%
viability, T/C (second compound 0.00949 µM, first compound 1 µM): 97.2%
viability, T/C (second compound 0.00949 µM, first compound 3.16 µM): 61.3%
viability, T/C (second compound 0.00949 µM, first compound 10 µM): 33.6%
viability, T/C (second compound 0.03 µM, first compound 0.0316 µM): 75.1%
viability, T/C (second compound 0.03 µM, first compound 0.1 µM): 97.4%
viability, T/C (second compound 0.03 µM, first compound 0.316 µM): 99.2%
viability, T/C (second compound 0.03 µM, first compound 1 µM): 97.6%
viability, T/C (second compound 0.03 µM, first compound 3.16 µM): 61.6%
viability, T/C (second compound 0.03 µM, first compound 10 µM): 29.4%
viability, T/C (second compound 0.0949 µM, first compound 0.0316 µM): 77.1%
viability, T/C (second compound 0.0949 µM, first compound 0.1 µM): 90.7%
viability, T/C (second compound 0.0949 µM, first compound 0.316 µM): 113%
viability, T/C (second compound 0.0949 µM, first compound 1 µM): 92.7%
viability, T/C (second compound 0.0949 µM, first compound 3.16 µM): 47.9%
viability, T/C (second compound 0.0949 µM, first compound 10 µM): 27.3%
viability, T/C (second compound 0.3 µM, first compound 0.0316 µM): 83.7%
viability, T/C (second compound 0.3 µM, first compound 0.1 µM): 102%
viability, T/C (second compound 0.3 µM, first compound 0.316 µM): 112%
viability, T/C (second compound 0.3 µM, first compound 1 µM): 98.3%
viability, T/C (second compound 0.3 µM, first compound 3.16 µM): 57.4%
viability, T/C (second compound 0.3 µM, first compound 10 µM): 23.8%
